Measurements published in patent publication US20190271703A1, “BIOMARKERS AND TREATMENTS FOR METASTATIC CANCER” (DUKE UNIVERSITY, priority 2016, published 2019).

Tested on: Pro-N-cadherin-positive and pro-N-cadherin-negative SUM159 sorted cells
Test: Clonogenic assay on pro-N-cadherin-sorted cells
Format: cell-based
Conditions: docetaxel 50, 75, 100, 150 nM for 48 h; pro-N-cadherin positive vs negative population
Experimental: Pro-N-cadherin-positive and pro-N-cadherin-negative SUM159 sorted cells were exposed to the indicated docetaxel concentrations and surviving fraction was determined in a clonogenic assay. Mean# colonies from three wells (+/−SEM) was determined for each cell population.
Pro-N-cadherin-positive and Pro-N-cadherin-negative populations were sorted from untreated SUM159 cells, seeded into 6 well plates ([…]) at varying cell densities, and incubated at 37° C., 5% C02 overnight. The next day, culture medium was removed and treatments were added [no treatment, Docetaxel (50 nM, 75 nM, 100 nM and 150 nM]. After 48 h, treatments were removed, cells were washed with HBSS, and fresh culture medium (lacking drug) was added. Every three days, culture medium was changed and plates were examined for colony formation. To stain colonies, plates were fixed in 10% Acetone/10% Methanol solution for 10 min. Colonies were stained with 2% Crystal Violet for 30 minutes. The plates are then washed with water and allowed to air dry. Plates were imaged on GelCount and colonies were counted with Image J.

## CC(=O)O[C@@]12CO[C@@H]1C[C@H](O)[C@@]1(C)C(=O)[C@H](O)C3=C(C)[C@@H](OC(=O)[C@H](O)[C@@H](NC(=O)OC(C)(C)C)c4ccccc4)C[C@@](O)([C@@H](OC(=O)c4ccccc4)[C@H]21)C3(C)C [docetaxel]
  surviving fraction (relative resistance of sorted populations): significantly more resistant
